# Measurements reported in PMC4457358, “Structure–activity studies in the development of a hydrazone based inhibitor of adipose-triglyceride lipase (ATGL)” (Bioorganic & Medicinal Chemistry, 2015).
# Where two headings read alike, the source gives them in different places.
# How the values were obtained:
# murine ATGL = target: T1, murine ATGL (Mus musculus, UniProt Q8BJ56); experiment: Triglyceride hydrolase activity assay with COS7-cell lysate overexpressing recombinant murine ATGL, radiolabelled triolein substrate; type: biochemical; parameters: IC50 (%): unit not given here; conditions: for inhibition at 200 µM: 1 h, read-out: I200 (%); for biological activity against ATGL (in words) / IC50: COS7-cell lysate overexpressing murine ATGL; for IC50 (%): COS7-cell lysate overexpressing recombinant murine ATGL, increasing inhibitor concentrations;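 on all read-outs here: radioactivity from the triolein substrate quantified by liquid scintillation counting after phase separation, reflecting triglyceride hydrolase activity of murine ATGL in lysates of transfected COS-7 cells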
# T1 construct: expressed in transfected cells; host or cells: COS-7 (ATCC CRL-1651), transient transfection with Metafectene; crude lysate after 1000 x g spin
# T1 sequence (Q8BJ56 1-486): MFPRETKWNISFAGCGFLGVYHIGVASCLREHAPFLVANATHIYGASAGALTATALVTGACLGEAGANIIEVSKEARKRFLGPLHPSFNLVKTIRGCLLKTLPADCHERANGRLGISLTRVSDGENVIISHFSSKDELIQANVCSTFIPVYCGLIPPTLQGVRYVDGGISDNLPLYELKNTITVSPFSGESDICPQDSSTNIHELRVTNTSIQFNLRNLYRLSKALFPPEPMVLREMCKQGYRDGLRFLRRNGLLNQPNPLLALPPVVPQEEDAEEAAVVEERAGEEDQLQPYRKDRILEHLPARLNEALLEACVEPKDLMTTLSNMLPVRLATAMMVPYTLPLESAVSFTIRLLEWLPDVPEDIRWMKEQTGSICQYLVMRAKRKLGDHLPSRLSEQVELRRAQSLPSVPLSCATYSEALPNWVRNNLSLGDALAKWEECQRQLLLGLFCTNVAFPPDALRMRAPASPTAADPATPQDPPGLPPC
# [1] = ATGL-inhibition efficiency at 200 μM inhibitor
Compound,inhibition at 200 µM (murine ATGL; [1]) [%],melting point,other results
"C(=N\N1CCN(c2ccccc2)CC1)/c1ccc2c(c1)OCCO2 [Compound 1y, (E)-N-((2,3-Dihydrobenzol[b][1,4]dioxin-6-yl)methylen)-4-phenylpiperazin-1-amine]",27,186 to 187 °C,–
"COc1ccc(/C=N/N2CCN(c3ccccc3)CC2)cc1O [Compound 1c, (E)-2-Methoxy-5-((4-phenylpiperazin-1-ylimino)methyl)phenol]",56,180 °C (dec.),–
"Clc1ccc(/C=N/N2CCN(c3ccccc3)CC2)c(Cl)c1 [Compound 1o, (E)-N-(2,4-Dichlorobenzylidene)-4-phenylpiperazin-1-amine]",42,113 to 115 °C,–
"CN(C)c1ccc(/C=N/N2CCN(c3ccccc3)CC2)cc1 [Compound 1u, (E)-N-(4-(Dimethylamino)benzylidene)-4-phenylpiperazin-1-amine]",5,190 °C (dec.),–
"CN(CCO)c1ccc(/C=N/N2CCN(c3ccccc3)CC2)cc1 [Compound 1w, (E)-2-(Methyl(4-((4-phenylpiperazin-1-ylimino)methyl)phenyl)amino)ethanol]",5,–,–
"C1=C(/C=N/N2CCN(c3ccccc3)CC2)CCCC1 [Compound 2d, (E)-N-(Cyclohexenylmethylen)-4-phenylpiperazin-1-amine]",58,118 to 120 °C,biological activity against ATGL (in words) (murine ATGL): moderate activity
"C(=N\N1CCN(c2ccccc2)CC1)/c1ccccn1 [Compound 2e, (E)-4-Phenyl-N-(pyridine-2-ylmethylen)piperazin-1-amine]",16,117 to 119 °C,–
"Oc1ccc(CN2CCN(c3ccccc3)CC2)cc1O [Compound 8, 4-((4-Phenylpiperazin-1-yl)methyl)benzene-1,2-diol]",–,100 to 102 °C,inhibition at 200 µM (murine ATGL): 20%; biological activity against ATGL (in words) (murine ATGL): biologically inactive
"COc1ccc(/C=N/N2CCN(c3ccccc3)CC2)cc1OC [Compound 1b, (E)-N-(3,4-Dimethoxybenzylidene)-4-phenylpiperazin-1-amine]",65,153 to 154 °C,–
"Fc1ccc(/C=N/N2CCN(c3ccccc3)CC2)cc1F [Compound 1m, (E)-N-(3,4-Difluorobenzylidene)-4-phenylpiperazin-1-amine]",67,152 to 154 °C,IC50 (murine ATGL): 75 µM
(E)-3-((4-Phenylpiperazin-1-ylimino)methyl)benzonitrile [Compound 1r],–,–,I200 (%) (murine ATGL; [1]): 60%; IC50 (%) (murine ATGL): 120
"Oc1ccc(/C=N/N2CCN(c3ccccc3)CC2)cc1 [Compound 1g, (E)-4-((4-Phenylpiperazin-1-ylimino)methyl)phenol]",85,192 °C (dec.),–
"O=C(Oc1ccc(F)c(F)c1)N1CCN(c2ccccc2)CC1 [Compound 14, 3,4-Difluorophenyl-4-phenylpiperazin-1-carboxylate]",57,94 to 96 °C,IC50 (murine ATGL): 110 µM
"C(=N\N1CCN(c2ccccc2)CC1)/c1cccc2ccccc12 [Compound 2j, (E)-N-(Naphthalene-1-methylen)-4-phenylpiperazin-1-amine]",49,118 °C,–
"Oc1cccc(/C=N/N2CCN(c3ccccc3)CC2)c1 [Compound 1e, (E)-3-((4-Phenylpiperazin-1-ylimino)methyl)phenol]",71,190 °C (dec.),–
"C(=N\N1CCN(c2ccccc2)CC1)/c1ccncc1 [Compound 2g, (E)-4-Phenyl-N-(pyridine-4-ylmethylen)piperazin-1-amine]",60,156 to 158 °C,biological activity against ATGL (in words) (murine ATGL): moderate activity
"Oc1ccc(/C=N/N2CCC(c3ccccc3)CC2)c(O)c1 [Compound 3h, (E)-4-((4-Phenylpiperidine-1-ylimino)methyl)benzene-1,3-diol]",81,139 to 142 °C,IC50 (murine ATGL): 40 µM
"Clc1ccc(/C=N/N2CCN(c3ccccc3)CC2)cc1Cl [Compound 1n, (E)-N-(3,4-Dichlorobenzylidene)-4-phenylpiperazin-1-amine]",20,176 to 178 °C,biological activity against ATGL (in words) (murine ATGL): inactive
"Oc1ccccc1/C=N/N1CCN(c2ccccc2)CC1 [Compound 1f, (E)-2-((4-Phenylpiperazin-1-ylimino)methyl)phenol]",64,138 to 142 °C,–
"COc1ccc(NC(=O)N2CCN(c3ccccc3)CC2)cc1OC [Compound 12, N-(3,4-Dimethoxyphenyl)-4-phenylpiperazin-1-carboxamide]",40,122 to 125 °C,biological activity against ATGL (in words) (murine ATGL): no biological activity

Compound,inhibition at 200 µM (murine ATGL; [1]) [%],melting point,other results
"COc1cc(OC)c(OC)cc1/C=N/N1CCN(c2ccccc2)CC1 [Compound 1k, (E)-4-Phenyl-N-(2,4,5-trimethoxybenzyliden)piperazin-1-amine]",43,153 to 156 °C,–
"Oc1ccc(/C=N/N2CCN(Cc3ccccc3)CC2)c(O)c1 [Compound 3d, (E)-4-((4-Benzylpiperazin-1-ylimino)methyl)benzene-1,3-diol]",48,225 to 228 °C,–
"O=[N+]([O-])c1ccccc1/C=N/N1CCN(c2ccccc2)CC1 [Compound 1p, (E)-N-(2-Nitrobenzylidene)-4-phenylpiperazin-1-amine]",60,103 to 106 °C,–
"C(=N\N1CCN(c2ccccc2)CC1)/c1ccc2c(c1)OCO2 [Compound 1x, (E)-N-(Benzo[d][1,3]dioxol-5-ylmethylen)-4-phenylpiperazin-1-amine]",64,125 to 129 °C,–
"Oc1ccc(/C=N/N2CCN(c3ccc(F)cc3)CC2)c(O)c1 [Compound 3b, (E)-4-((4-(4-Fluorophenyl)piperazin-1-ylimino)methyl)benzene-1,3-diol]",78,176 to 178 °C,IC50 (murine ATGL): 50 µM
(E)-N-(4-Phenoxybenzylidene)-4-phenylpiperazin-1-amine [Compound 1j],–,–,I200 (%) (murine ATGL; [1]): 24%; IC50 (%) (murine ATGL): >200
(E)-4-Phenyl-N-(4-propoxybenzylidene)piperazin-1-amine [Compound 1i],–,–,I200 (%) (murine ATGL; [1]): 14%; IC50 (%) (murine ATGL): >200
"COc1cc(/C=N/N2CCN(c3ccccc3)CC2)cc(OC)c1OC [Compound 1l, (E)-4-Phenyl-N-(3,4,5-trimethoxybenzylidene)piperazin-1-amine]",41,93 to 98 °C,–
"Oc1ccc(/C=N/N2CCCN(c3ccccc3)CC2)c(O)c1 [Compound 3j, (E)-4-((4-Phenyl-1,4-diazepan-1-ylimino)methyl)benzene-1,3-diol]",87,–,–
"O=c1[nH]c2ccc(/C=N/N3CCN(c4ccccc4)CC3)cc2[nH]1 [Compound 1z, (E)-5-((4-Phenylpiperazin-1-ylimino)methyl)-1H-benzo[d]imidazol-2(3H)-one]",16,320 to 330 °C (dec.),–
"Oc1ccc(/C=N/N2CCN(CCc3ccccc3)CC2)c(O)c1 [Compound 3e, (E)-4-((4-Phenethylpiperazin-1-ylimino)methyl)benzene-1,3-diol]",14,211 to 214 °C,–
"COc1cc(/C=N/N2CCN(c3ccccc3)CC2)ccc1O [Compound 1d, (E)-2-Methoxy-4-((4-phenylpiperazin-1-ylimino)methyl)phenol]",82,–,–
"CC(=O)Nc1ccc(/C=N/N2CCN(c3ccccc3)CC2)cc1 [Compound 1v, (E)-N-(4-((4-Phenylpiperazin-1-ylimino)methyl)phenyl)acetamide]",14,–,–
"C(=N\N1CCN(c2ccccc2)CC1)/c1cccnc1 [Compound 2f, (E)-4-Phenyl-N-(pyridine-3-ylmethylen)piperazin-1-amine]",46,111 to 113 °C,–
"COc1ccc(C(=O)NN2CCN(c3ccccc3)CC2)cc1OC [Compound 10, 3,4-Dimethoxy-N-(4-phenylpiperazin-1-yl)benzamide]",38,–,biological activity against ATGL (in words) (murine ATGL): inactive
"Cc1ccc(/C=N/N2CCN(c3ccccc3)CC2)cc1 [Compound 1t, (E)-N-(4-Methylbenzylidene)-4-phenylpiperazin-1-amine]",22,184 to 186 °C,biological activity against ATGL (in words) (murine ATGL): inactive
"CCCC/C=N/N1CCN(c2ccccc2)CC1 [Compound 2a, (E)-N-Pentyliden-4-phenylpiperazin-1-amine]",12,–,–
"N#Cc1ccc(/C=N/N2CCN(c3ccccc3)CC2)cc1 [Compound 1s, (E)-4-((4-Phenylpiperazin-1-ylimino)methyl)benzonitrile]",76,–,IC50 (murine ATGL): 50 µM
"Cc1cccc(N2CCN(/N=C/c3ccc(O)cc3O)CC2)c1 [Compound 3c, (E)-4-((4-m-Tolylpiperazin-1-ylimino)methyl)benzene-1,3-diol]",44,–,–
